The results in this text go back to patent US20060270709A1 (priority 2005, published 2006).

Series [1] has as its system dopamine turnover in mice striatum. As to the kind of experiment: Dopamine, DOPAC and HVA content / dopamine turnover in mice striatum (HPLC-ECD). The format is in vivo, C57BL/6 mice. The following applies: oral; for dopamine turnover: monotherapy vs combination, mice striatum (FIG. 3).
Protocol: C57BL/6 mice (SLC, Shizuoka, Japan) were used for the experiment. […] The two drugs were orally administered by gavage 1 hour before sampling. At the time the mice were sacrificed, both striata were rapidly dissected and were frozen by liquid nitrogen. The samples were subsequently sonicated in 0.5 ml of chilled 0.5 M perchloric acid containing 0.1 M EDTA, and centrifuged at 13000 rpm for 15 min at 4° C. Then monoamine levels were measured by HPLC with electrochemical detection. Supernatant aliquots of 20 μl were separated over an Eicompak SC5-ODS column (3×150 mm; Eicom, Japan) with mobile phase of 17% methanol, 83% 0.1M acetate/citrate buffer (pH 3.5) containing 190 mg/ml sodium 1-octanesulfonate and 50 mg/ml EDTA, and a flow rate of 0.65 ml/min. Peaks of dopamine, DOPAC, HVA, 5-HT, and 5-HIAA were quantified by area integration with PowerChrom (eDAQ, Australia), and concentrations were expressed as nanograms per milligram of striatal tissue.
The test system of series [2] is NMDA-induced neural toxicity in cortical neurons. As to the kind of experiment: NMDA-induced neural toxicity in cortical neurons (LDH release). The class given is cell-based, rat (Wistar, fetal). The note with it: 200 μM NMDA 24 h. As for the experimental part: The cortical tissues were dissociated to single cells by gentle trituration. […] The cell suspension was centrifuged at 310×g for 3 min and the resulting pellets were resuspended in the medium described above.
For orientation: LDH leaks from cells whose membrane has failed.

In series [3] the test system is AMPA-mediated neurodegeneration in CA1 region of organotypic hippocampal slice cultures. As to the kind of experiment: AMPA toxicity in organotypic hippocampal slice cultures (PI fluorescence in CA1). The class given is cell-based, Wistar rat. As to the method: (§1) Organotypic hippocampal slice cultures were prepared using the basic method of Pringle et al, Brain Research, 755:36-46 (1997) modified as follows. Wistar rat pups (8-11 days old) were decapitated and the hippocampus rapidly dissected into ice-cold Gey's balanced salt solution supplemented with 4.5 mg/ml glucose. Transverse sections (400 μm) were cut on a McIlwain tissue chopper and placed back into ice-cold Gey's balanced salt solution. Slices were separated and plated onto Millicell CM culture inserts (4 per well) and maintained at 37° C./5% CO2 for 14 days. […] Medium was changed every 3-4 days.
(§2) PI fluorescence was detected using a Leica DMIL inverted microscope fitted with a rhodamine filter set. Any cultures in which PI fluorescence was detected at this stage were excluded from further study. […] Neuronal damage was assessed by PI fluorescence imaging 24 hours after the initiation of the neurotoxic insult. Neurotoxicity protocols are outlined below.
(1) AMPA: Cultures were transferred to fresh SFM (+PI) containing 30 μM S-AMPA for 3 hours under normal culture conditions. At the end of this period, cultures were returned to fresh SFM for 21 hours prior to determination of neuronal death by PI imaging. GYK152466 (30 μM) was used as a positive, neuroprotective control.
(§3) Neuronal damage was assessed using ImageJ software running on a PC. Images were captured using a monochrome CCD camera and saved for otlline analysis. Light transmission images were captured prior to the addition of drugs, and PI fluorescence images recorded at the end of the 24-hour recovery period. The area of the CA1 region was determined from the transmission image. The area of PI fluorescence in the CA1 was measured using the threshold function on ImageJ, and neuronal damage expressed as the percentage of the CA1 in which PI fluorescence was detected above background. Morrison et al, Br. J. Pharmacol., 137:1255-1268 (2002).

The test system of series [4] is OGD-induced neurotoxicity in CA1 region of organotypic hippocampal slice cultures. In words: Oxygen-glucose deprivation (OGD) in organotypic hippocampal slice cultures (PI fluorescence in CA1). The format is cell-based, Wistar rat. As to the method:
as §1, §2
(2) Oxygen-Glucose Deprivation (OGD): Experimental ischaemia was performed by exposing cultures to oxygen-glucose deprivation (OGD) as described previously. Pringle et al, Brain Research, 755:36-46 (1997); Pringle et al, Stroke, 27:2124-2130 (1996); Morrison et al, Br. J. Pharmacol., 137:1255-1268 (2002). OGD was induced by transferring cultures to glucose-free SFM (+PI) which had been saturated with 95% N2/5% CO2. Culture plates (without lids) were then sealed into an airtight chamber in which the atmosphere was saturated with 95% N2/5% CO2 by continuously blowing through gas at 10 L/min for ten minutes before being sealed and placed in the incubator for 50 mins (total time of OGD was therefore 60 mins). At the end of the period of OGD cultures were returned to normoxic SFM containing PI and placed back in the incubator for 23 hours.
as §3

Series [5] has as its system duroquinone-induced injury in CA1 region of organotypic hippocampal slice cultures. In words: Free radical-mediated toxicity (duroquinone) in organotypic hippocampal slice cultures. The class given is cell-based, Wistar rat. The following applies: 100 μM duroquinone 3 hours, duroquinone alone 51.0±3.4%. As to the method: as §1
PI fluorescence was detected using a Leica DMIL inverted microscope fitted with a rhodamine filter set. Any cultures in which PI fluorescence was detected at this stage were excluded from further study. […] Neuronal damage was assessed by PI fluorescence imaging 24 hours after the initiation of the neurotoxic insult. Neurotoxicity protocols are outlined below. […]
(§4) Neuronal damage was assessed using ImageJ software running on a PC. […] Light transmission images were captured prior to the addition of drugs, and PI fluorescence images recorded at the end of the 24-hour recovery period. The area of the CA1 region was determined from the transmission image. […]

For series [6], the system named is NMDA-induced neurotoxicity in CA1 region of organotypic hippocampal slice cultures. As to the kind of experiment: NMDA-induced neurotoxicity in organotypic hippocampal slice cultures. The following applies: 10 μM NMDA 3 hours, NMDA alone 35.1±[…]. The format is cell-based, Wistar rat. As for the experimental part:
as §1, §2
At the end of this period, cultures were returned to fresh SFM for 21 hours prior to determination of neuronal death by PI imaging.
as §4

The test system of series [7] is hypoxia-induced neurodegeneration in CA1 region of organotypic hippocampal slice cultures. In words: Hypoxia-induced neurodegeneration in organotypic hippocampal slice cultures. The format is cell-based, Wistar rat. As to the method:
as §1, §2
(3) Hypoxia: Hypoxia was performed by exposing cultures to oxygen-deprivation as described previously. Pringle et al, Brain Research, 755:36-46 (1997); Pringle et al, Stroke, 27:2124-2130 (1996). Hypoxia was induced by transferring cultures to SFM (+PI) which had been saturated with 95% N2/5% CO2. Culture plates (without lids) were then sealed into an airtight chamber in which the atmosphere was saturated with 95% N2/5% CO2 by continuously blowing through gas at 10 L/min for ten minutes before being sealed and placed in the incubator for 170 mins (total time of hypoxia was therefore 180 mins). At the end of the period of hypoxia, cultures were returned to normoxic SFM (+PI) and placed back in the incubator for 21 hours. The freeradical scavenger MnTBAP (100 μM) was used as a positive neuroprotective control.
as §3

For series [8] the following is noted: C57BL/6, mouse, in vivo, po, 1 h.
Setting [9] is: 1 hour before sampling (FIG. 2).

For orientation: EC50 means the midpoint of the concentration-response curve. On to `N#Cc1ccccc1-c1cc(-c2ccccn2)cn(-c2ccccc2)c1=O` [2-(2-oxo-1-phenyl-5-pyridin-2-yl-1,2-dihydropyridin-3-yl)benzonitrile], for which the “content of HVA in striatum” value in series [1] (1 mg/kg, 1 hour before sampling (FIG. 1)) is “elevated”. The dopamine turnover result in series [1] was “modulated dopamine turnover but neither reached significance”. For the same molecule, the “concentration from which the effect reached a plateau” value in series [2] is on record as at least 0.3 mM. The “neuronal survival (LDH release)” value in series [2] (drugs 24 hours before and during exposure (FIG. 5)) was “showed effects”. For the same molecule, the “damage in CA1 (PI fluorescence)” value in series [3] (0.1 μM, 30 μM AMPA 3 hours, AMPA alone 65.1±1.7%) was found to be 63.9±2.6%; in series [3] (0.3 μM, 30 μM AMPA 3 hours, AMPA alone 65.1±1.7%) it was 50.4±2.5%; in series [3] (3 μM, 30 μM AMPA 3 hours, AMPA alone 65.1±1.7%), 0.1±0.1%; in series [4] (0.1 μM, 60 minutes OGD, initial set, OGD alone 50.6±5.2%), 64.4±3.6%; in series [4] (0.5 μM, OGD second series, OGD alone 44.8±[…]), 55.3±3.1%; in series [5] (0.5 μM), 69.1±4.0%. In addition, the “damage in CA1 (PI fluorescence)” value in series [6] (0.5 μM) stood at 29.1±2.9%; in series [7] (0.1 μM, 3 hours hypoxia, first set, hypoxia alone 45.1±3.5%) it was 24.8±6.3%; in series [7] (0.1 μM, hypoxia, second set, hypoxia alone 36.4±[…]), 36.7±4.2%; in series [7] (0.5 μM, hypoxia, repeated experiment, hypoxia alone 36.9+[…]), 27.1±3.5%; in series [7] (5 μM, 3 hours hypoxia, first set, hypoxia alone 45.1±3.5%), 3.9±1.8%. In series [3] (0.5 μM, 30 μM AMPA, AMPA alone 62.4±[…]), the “area of PI fluorescence, % of CA1” value turned out to be 33.6±4.0%. For the same molecule, in series [3] (Rattus norvegicus, 3 h, read-out: EC50 in this model of AMPA toxicity), the EC50 was determined as 500 nM. Moreover, the “effect on OGD-induced PI fluorescence” value in series [4] (any other concentration assessed (up to 3 μM), 60 minutes OGD) was “no significant effect”. Further, the “EC50 in OGD model” value in series [4] (six-point concentration-response curve, 60 minutes OGD) is given as “could not be established”.
In the case of `CC1=NN=C(c2ccc(N)cc2)c2cc3c(cc2C1)OCO3` [GYK152466, reference compound], the “damage in CA1 (PI fluorescence)” value in series [3] (30 μM test substance, 30 μM AMPA 3 hours, AMPA alone 65.1±1.7%) was 14.3±2.3%; in series [3] (30 μM, pre-incubation time experiments, AMPA alone 46.5±5.0%), 21.7±2.7%; in series [4] (30 μM, 60 minutes OGD, initial set, OGD alone 50.6±5.2%), 36.9±3.6%.
Regarding `O=C(O)c1ccc(/C2=C3\C=CC(=N3)/C(c3ccc(C(=O)O)cc3)=c3/cc/c4[n]3[Mn]([Cl])[n]3c2ccc3/C(c2ccc(C(=O)O)cc2)=C2/C=CC(=N2)\C=4c2ccc(C(=O)O)cc2)cc1` [MnTBAP, reference compound], the “damage in CA1 (PI fluorescence)” value in series [4] (100 μM, 60 minutes OGD, initial set, OGD alone 50.6±5.2%) came to 0.1±0.0%; in series [4] (100 μM, OGD second series, OGD alone 44.8±[…]) it was 0.6±0.2%; in series [5] (100 μM), 0.1±0.0%; in series [7] (100 μM, 3 hours hypoxia, first set, hypoxia alone 45.1±3.5%), 0.2±0.1%; in series [7] (100 μM, hypoxia, repeated experiment, hypoxia alone 36.9+[…]), 0.8±0.4%; in series [7] (100 μM, hypoxia, second set, hypoxia alone 36.4±[…]) it was 0.0±0.0%.
Regarding `C[C@]12N[C@H](Cc3ccccc31)c1ccccc12` [MK-801, reference compound], in series [6] (10 μM), the “damage in CA1 (PI fluorescence)” value was determined as 0.0±0.0%.
`COc1cc2c(cc1OC)C(=O)C(CC1CCN(Cc3ccccc3)CC1)C2` (stereo not shown) [donepezil, 1-benzyl-4-((5,6-dimethoxy-1-indanon)-2-yl)methylpiperidine]: the dopamine turnover entry in series [1] is reported as “modulated dopamine turnover but neither reached significance”. In addition, in series [1] (setting [9]), the DPAC/DA entry is “increased significantly”, the HVA/DA result is reported as “increased significantly” and the “content of dopamine in striatum” value is reported as “reduced the content of dopamine significantly”. In addition, in series [8], the “dose at which peripheral side effect was shown” value is listed as at least 7.5 mg/kg.
